Tests used:
[1] = test system: MCF-7 breast cancer cells; experiment: Cell death and growth in MCF-7 breast cancer cell cultures; format: cell-based; settings: for MCF7 Cell Death Amount: 25 μM β-AED, 25 μM β-AET, PEG 300/LIPOFECTAMINE vehicle; for cell growth / cell density (microscopic photograph): compared to vehicle FIG. 14
Procedure: (§1) Hormone dependent, noninvasive, epithelial phenotype (ER/PR positive MCF-7 breast cancer cells) and hormone independent, invasive, mesenchymal phenotype (ER/PR negative MDA-MB-231 breast cancer cell) cell suspensions were acquired and prepared in complete medium (DMEM/F12, 10% FBS, 1% penicillin/streptomycin (Gibco)). Cellular concentration was adjusted to 2×10^5 cells/mL.
(§2) Androstene hormone solutions according to embodiments of the present invention were prepared from a first solution and a second solution. For the first solution, 3.0 mg of β-AED or β-AET was added to warm PEG 300 to prepare 50 mM stock. For the second solution, 10 μL of LIPOFECTAMINE (3:1 DOSPA:DOPE) was introduced to 100 μL of PEG 300, mixed, and incubated in a water bath at 42° C. for 30 min. The first and second solutions were then mixed in a sonicator water bath at 42° C. for 1 hr. The final concentration was 50 mM β-AED (or AET, as used).
(§3) A β-estradiol solution was also prepared by adding 2.7 mg of β-estradiol to 200 μL warmed PEG 300 with LIPOFECTAMINE and then further diluted 1:1000 with PEG-300. The final concentration was 50 μM.
A diluted β-AED (or β-AET) solution was prepared with complete medium at a final concentration of 50 μM (1:1000 dilute of 50 mM). Likewise, a diluted β-E2 solution was prepared with complete medium at a final concentration of 10 nM (1:5000 dilute of 50 μM).
Using a 24-well plate, mixtures of 0.5 mL of cells per well with 0.5 mL of medium diluted hormone vehicle. Cell cultures were maintained at 90% humidity, 7% CO2, and 37° C.

[2] = test system: MDA-MB-231 breast cancer cell; experiment: Cell death in MDA-MB-231 breast cancer cell cultures; format: cell-based; settings: 25 μM β-AED, 25 μM β-AET, 5 nM E2; PEG 300/LIPOFECTAMINE vehicle
Procedure: as §1, §2, §3
A diluted β-AED (or β-AET) solution was prepared with complete medium at a final concentration of 50 μM (1:1000 dilute of 50 mM). Likewise, a diluted β-E2 solution was prepared with complete medium at a final concentration of 10 nM (1:5000 dilute of 50 μM). […]

[3] = test system: 293T cells; experiment: Biological function (phenotype, mobile cells) in 293T cells; format: cell-based, human
Procedure: A non-toxic vehicle for administration of androstene hormones according to embodiments of the present invention was prepared from a first solution and a second solution. The first solution, comprising liposomal formulation, was placed in PEG 300 to a concentration of 5% and heated in a sonicating water bath to about 45° C. The second solution, comprising a selected hormone (one or more of 5Δ-androsten-3β, 17α-diol, 5Δ-androsten-3β, 17β-diol, or 5Δ-androsten-3β,7β,17β-triol), was placed in PEG 300 and heated in a sonicating water bath to about 45° C. The first and second solutions were then combine and stirred until dissolved.
Biological function was tested in 293T cells, which is a human embryonic cell line transformed with Large T antigen […] SV40. This hypotriploid (polyploid) cell line is particularly useful in such transformation studies and has very distinct phenotypes when grown. All androstene hormone treatment applications were at concentrations of 25 μM.

[4] = MCF-7 grown for 5 days, 25 μM androstene, 5 nM E2
[5] = vehicle PEG 300, androstene hormone 25 μM

Structure (SMILES): C[C@]12CC[C@H]3[C@@H](CC=C4C[C@@H](O)CC[C@@]43C)[C@@H]1CC[C@@H]2O [β-AED, androst-5-ene-3β,17β-diol]
- MCF7 Cell Death Amount ([1]; 5 nM E2): Not observed
- particles / cell bodies produced by cells in response to treatment [1, 4]: small particles
- cell growth / cell density (microscopic photograph) [1, 4]: not as heath and there are areas of decreased density
- Additional Observation ([1]; cell line not given, particles shown for MCF-7 in FIG. 15): Cell particles observed
- MDA-MB-231 Cell Death Amount [2]: Not observed
- cell islands (photograph) [3, 5]: cell islands are larger
- mobile cells / cell processes (photograph) [3, 5]: significant reduction in mobile cells
- mobile cells / mobile elements and processes (photograph) ([3]; vehicle PEG 300 and LIPOFECTAMINE, β-AED 25 μM, E2 5 nM): drastic decrease in, or morphological change, in mobile elements

Structure (SMILES): C[C@]12CC[C@H]3[C@@H]([C@@H](O)C=C4C[C@@H](O)CC[C@@]43C)[C@@H]1CC[C@@H]2O [β-AET, 5-androstene-3β,7β,17β-triol]
- MCF7 Cell Death Amount ([1]; 5 nM E2): Not observed
- cell growth / cell density (microscopic photograph) [1, 4]: thick and similar to the cell growth of FIG. 14
- MDA-MB-231 Cell Death Amount [2]: Not observed
